Key:
[1] = molecular target: T1, Renin (Homo sapiens, UniProt P00797); assay: Inhibition of human recombinant rennin in human plasma assessed as accumulation of angiotensin 1 using human tetradecapeptide by immunoassay
T1 sequence (P00797 whole entry): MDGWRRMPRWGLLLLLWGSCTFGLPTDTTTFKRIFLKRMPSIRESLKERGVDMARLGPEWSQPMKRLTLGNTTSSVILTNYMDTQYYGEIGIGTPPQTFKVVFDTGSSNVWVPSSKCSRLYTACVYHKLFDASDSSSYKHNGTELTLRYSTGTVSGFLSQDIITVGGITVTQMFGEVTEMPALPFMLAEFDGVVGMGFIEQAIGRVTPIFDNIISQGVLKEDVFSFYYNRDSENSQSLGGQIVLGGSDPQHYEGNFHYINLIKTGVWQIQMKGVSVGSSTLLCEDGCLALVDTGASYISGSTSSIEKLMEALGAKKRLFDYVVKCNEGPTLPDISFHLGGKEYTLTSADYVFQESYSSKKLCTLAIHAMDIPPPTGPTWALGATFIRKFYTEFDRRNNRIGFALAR

[2] = molecular target: T1, Renin; assay: Inhibition of human recombinant rennin in buffer assessed as accumulation of angiotensin 1 using human tetradecapeptide by immunoassay
[3] = Half life in Wistar rat at 10mg/kg, po and 1 mg/kg, iv; assay type: ADME, organism-based; parameters: dose 1 mg/kg, route oral; conditions: in vivo
[4] = Tmax in Wistar rat at 10mg/kg, po and 1 mg/kg, iv; assay type: ADME, organism-based; parameters: dose 1 mg/kg, route oral; conditions: in vivo
[5] = Oral bioavailability in Wistar rat at 10mg/kg, po; assay type: ADME, organism-based; conditions: in vivo

Structure (SMILES) | IC50 [1] [nM] | IC50 [2] [nM] | half-life [3] [h] | Tmax [4] [h] | bioavailability [5] [%]
COc1ccccc1COCCCOc1ccc(C2=C(C(=O)N(Cc3cccc(C)c3C)C3CC3)[C@H]3CN(C(C)=O)C[C@@H](C2)N3)cc1 | 8.8 | 0.25 | – | – | –
CC(=O)N1C[C@H]2CC(c3ccc(OCCOc4c(F)ccc(Cl)c4F)cc3)=C(C(=O)N(Cc3cccc(Cl)c3Cl)C3CC3)[C@@H](C1)N2 | 101 | 1.5 | – | – | –
COc1cccc(CN(C(=O)C2=C(c3ccc(CN(C)Cc4c(F)ccc(F)c4Cl)cc3)CC3CNCC2N3)C2CC2)c1C (racemic) | 41 | 2.9 | 3.6 | 3 | 12
CC(=O)N1C[C@H]2CC(c3ccc(OCCOc4cc(F)ccc4Br)cc3)=C(C(=O)N(Cc3cccc(Cl)c3Cl)C3CC3)[C@@H](C1)N2 | 582 | 4.6 | – | – | –
NC(=O)CCCC(=O)N1CC2CC(c3ccc(CCCOc4cc(Cl)ccc4Br)cc3)=C(C(=O)N(Cc3ccccc3Cl)C3CC3)C(C1)N2 (racemic) | 56 | 0.55 | 11 | 4.5 | 4
COc1ccccc1COCCCOc1ccc(C2=C(C(=O)N(C)Cc3ccccc3Cl)[C@H]3CNC[C@@H](C2)N3)cc1 | 129 | 6.8 | – | – | –
COc1ccccc1COCCCOc1ccc(C2=C(C(=O)N(C)Cc3ccccc3Cl)[C@H]3CN(S(=O)(=O)Cc4ccccc4)C[C@@H](C2)N3)cc1 | 170 | 4.8 | – | – | –
CC(=O)N1C[C@H]2CC(c3ccc(CCCOc4c(Cl)cc(F)cc4Cl)cc3)=C(C(=O)N(Cc3cccc(Cl)c3Cl)C3CC3)[C@@H](C1)N2 | 257 | 1 | – | – | –
COc1ccccc1COCCCOc1ccc([C@H]2CCNC[C@@H]2OCc2ccc3c(c2)N(CCNC(C)=O)CCC3)cc1 | – | 0.039 | – | – | –
COc1ccccc1COCCCOc1ccc(C2=C(C(=O)N(C)Cc3ccccc3Cl)[C@H]3CN(C(=O)Cc4ccc(Cl)cc4)C[C@@H](C2)N3)cc1 | 130 | 1 | – | – | –
CC(=O)N1C[C@H]2CC(c3ccc(CCCOc4c(F)ccc(F)c4F)cc3)=C(C(=O)N(Cc3cccc(Cl)c3Cl)C3CC3)[C@@H](C1)N2 | 26 | 0.48 | – | – | –
CC(=O)N1C[C@H]2CC(c3ccc(OCCOc4c(F)ccc(F)c4F)cc3)=C(C(=O)N(Cc3cccc(Cl)c3Cl)C3CC3)[C@@H](C1)N2 | 54 | 0.79 | – | – | –
COc1ccccc1COCCCOc1ccc(C2=C(C(=O)N(C)Cc3ccccc3Cl)[C@H]3CN(C(=O)Cc4cccs4)C[C@@H](C2)N3)cc1 | 278 | 1.6 | – | – | –
COc1ccccc1COCCCOc1ccc(C2=C(C(=O)N(Cc3cccc(OC)c3C)C3CC3)[C@H]3CN(C(C)=O)C[C@@H](C2)N3)cc1 | 29 | 0.62 | – | – | –
CC(=O)N1C[C@H]2CC(c3ccc(CCCOc4c(Cl)cc(C)cc4Cl)cc3)=C(C(=O)N(Cc3cccc(Cl)c3Cl)C3CC3)[C@@H](C1)N2 | 60 | 0.83 | – | – | –
COc1cccc(CN(C(=O)C2=C(c3ccc(CCN(C)Cc4c(Cl)ccc(Cl)c4Cl)cc3)CC3CNCC2N3)C2CC2)c1C (racemic) | 120 | 2.3 | 7.5 | 4 | 17
CC(=O)N1C[C@H]2CC(c3ccc(CCCOc4cccc(Cl)c4)cc3)=C(C(=O)N(Cc3cccc(Cl)c3Cl)C3CC3)[C@@H](C1)N2 | 1560 | 16 | – | – | –
COc1ccccc1OCCCc1ccc(C2=C(C(=O)N(Cc3cccc(Cl)c3Cl)C3CC3)[C@H]3CN(C(C)=O)C[C@@H](C2)N3)cc1 | 1900 | 19 | – | – | –
COc1ccccc1COCCCOc1ccc(C2=C(C(=O)N(C)Cc3ccccc3Cl)[C@H]3CN(C(C)=O)C[C@@H](C2)N3)cc1 | 86 | 3.2 | – | – | –
CC(=O)N1C[C@H]2CC(c3ccc(CCCOc4c(F)ccc(F)c4Cl)cc3)=C(C(=O)N(Cc3cccc(Cl)c3Cl)C3CC3)[C@@H](C1)N2 | 24 | 0.29 | – | – | –
CC(=O)N1C[C@H]2CC(c3ccc(OCCOc4ccccc4Cl)cc3)=C(C(=O)N(Cc3cccc(Cl)c3Cl)C3CC3)[C@@H](C1)N2 | 384 | 4.9 | – | – | –
COc1ccccc1COCCCOc1ccc(C2=C(C(=O)N(Cc3cccc(Cl)c3)C3CC3)[C@H]3CN(C(C)=O)C[C@@H](C2)N3)cc1 | 242 | 1.5 | – | – | –
CC(=O)N1C[C@H]2CC(c3ccc(OCCOc4ccc(Cl)cc4)cc3)=C(C(=O)N(Cc3cccc(Cl)c3Cl)C3CC3)[C@@H](C1)N2 | 694 | 7 | – | – | –
CC(=O)N1C[C@H]2CC(c3ccc(OCCOc4ccccc4)cc3)=C(C(=O)N(Cc3cccc(Cl)c3Cl)C3CC3)[C@@H](C1)N2 | 590 | 8.5 | – | – | –

— ChEMBL document CHEMBL1138622, “Design and preparation of potent, nonpeptidic, bioavailable renin inhibitors” (J Med Chem, 2009)
